From paper PMC9616412, “Nebulized fusion inhibitory peptide protects cynomolgus macaques from measles virus infection” (Nature Communications, 2022)

Settings: 74 MBq in 3 ml NaCl 0.9%, mesh nebulizer; Mean +/- SD of four experiments
Protocol: Following European recommendations, 2 five-year-old healthy female cynomolgus macaques, 3–4 kg, were housed under conventional conditions in the animal facility. […] Animals were acclimatized to laboratory conditions and trained to breathe an aerosol with a facemask spontaneously. Aerosol generated from 3 ml of 0.9% NaCl mixed with 74 MBq of DTPA radiolabeled with technetium 99 m (^99mTc-DTPA) was administered through a facemask connected to the prototype mesh nebulizers, as used in MeV infection experiments (Fig. 2a). Deposition of aerosol was extrapolated based on the ^99mTc-DTPA signal measured at the end of the nebulization using a gamma camera (Orbiter 75 Ecam, Siemens healthcare, Erlangen, Germany)[69]. The nebulizer charge was measured by counting the radioactivity in the syringe (that contained ^99mTc-DTPA) before and after loading the nebulizers. Immediately after aerosol delivery, the animals were imaged using the gamma camera. The post-anterior static scintigraphy acquisition was performed for 120 s. The amount of ^99mTc-DTPA deposited into airways and stomach and remaining in the nebulizer was determined from the digitalized images taking into account the tissue attenuation coefficients, previously determined by perfusion scintigraphy (intravenous injection of ^99mTc-macroagregates of albumin). The organ body outline was specified using a specific Region Of Interest (ROI), and the lungs were delineated using the perfusion scan ROI. The aerosol dose delivered to different organs of NHPs is reported as a percentage of the nominal dose placed in the nebulizer for that given experiment, taking into account the decay of technetium for all measurements.

O=C([O-])CN(CCN(CC(=O)[O-])CC(=O)[O-])CCN(CC(=O)[O-])CC(=O)[O-].[99Tc+4] [99mTC-DTPA, DTPA radiolabeled with technetium 99 m]
Deposition in macaque, Esophagus / trachea: 3.4 +/- 4.2% | Deposition in macaque, Lungs: 11.4 +/- 3.1% | Deposition in macaque, Stomach: 11.9 +/-9.2% | Deposition in macaque, Upper respiratory Tract: 29.5 +/- 11.9%
